Assay results as given in patent US6706748B2 (priority 2000, dated 2004).

Row | SMILES | melting point [°C]
1 | O=C(CC(=O)c1snc(Cl)c1Cl)c1ccc(O)cc1 [Ic-148, 1-(3,4-dichloro-5-isothiazolyl)-3-(4-hydroxyphenyl)-1,3-propanedione] | 224 to 227
2 | COc1ccc(S(=O)(=O)N(C(=O)c2snc(Cl)c2Cl)c2ccc(Cl)cc2)cc1 [Ia-68, N-(3,4-dichloro-5-isothiazolecarbonyl)-N-(4-chlorophenyl)-4-methoxybenzenesulfonamide] | 154 to 158
3 | COC(=O)C(C#N)C(=O)c1snc(Cl)c1Cl (centres unmarked) [Ie-1, methyl 2-cyano-3-(3,4-dichloro-5-isothiazolyl)-3-oxopropanoate] | 119 to 122

Other lines, results leading:

Row | melting point [°C] | SMILES
4 | 174 | CCOCOc1ccc(C(=O)CC(=O)c2snc(Cl)c2Cl)cc1 [Ic-145, 1-(3,4-dichloro-5-isothiazolyl)-3-(4-ethoxymethoxyphenyl)-1,3-propanedione]
5 | 138 to 139 | COc1ccc(C(=O)CC(=O)c2snc(Cl)c2Cl)cc1
